Consider four compounds from patent US7022319B1, “Vectors carrying therapeutic genes encoding antimicrobial peptides for gene therapy” (GSF - Forschungszentrum fuer Umwelt und Gesundheit GmbH, priority 1995, dated 2006).

The subject of data set [1] is HIV. The conditions noted are these: purified peptide given to cells in culture; cited from earlier work.
The subject of data set [2] is cancer. The settings on record: purified peptide given to cells in culture; cited from earlier work.
Data set [3] deals with bacteria. The conditions noted are these: cited from earlier work.
Data set [4] has as its system mammalian cells. The settings on record: cited from earlier work.
The subject of data set [5] is variety of tumour cell lines. The conditions noted are these: cited from earlier work.
Data set [6] relates to MMTV LTR. Put plainly: MMTV LTR-luciferase reporter supertransfected into cells carrying PreProCecropin or PreProMelittin. It counts as cell-based, Mouse Mammary Tumour Virus. The settings on record: two different MMTV LTRs; gene under control of an MLV promoter; FIGS. 13A-13B. From the text: A similar experiment to that of FIGS. 11 and 12 can be seen in FIGS. 13A–13B whereby two different MMTV LTR's controlling the expression of a luciferase reporter gene (Wintersberger et al., Proc. Natl. Acad. Sci. USA, 92:2745–2749) were separately supertransfected into cells carrying either PreProCecropin or PreProMelittin under control of an MLV promoter.

Data set [7] relates to HIV LTR. As to the kind of experiment: HIV LTR-luciferase reporter (HIV-luc) supertransfected into EJ derived cell clones, with or without Tat. It counts as cell-based. The settings on record: in the presence of Tat, FIGS. 11 and 12. From the text: EJ derived cell clones carrying the melittin or cecropin expression vector or the parental. BAG vector, not carrying a therapeutic gene, were supertransfected with an indicator construct carrying the HIV LTR (and thus the HIV promoter) linked to a firefly luciferase reporter gene (HIV-luc) in the absence or presence of a separate construct expressing Tat. In the absence of Tat there was little luciferase activity detectable from the HIV-luc construct in all cell clones as expected since the HIV promoter requires Tat for its activity. […] Thus the production of HIV from infected cells will be inhibited by the antimicrobial peptide gene carrying therapeutic-retroviral vector. This effect is expected to lead to a lack of virus production from HIV infected cells.
A general note: In a reporter assay the amount or activity of a reporter protein is the signal.

The subject of data set [8] is human bladder carcinoma derived cell line, EJ. Put plainly: Tumorigenicity in nude mice of EJ cell clones carrying melittin or cecropin expression constructs. Type of data set: in vivo. The settings on record: EJ cell clones carrying the gene, injected into nude mice; FIGS. 9A-9G and 10A-10F. The source says: EJ cells were transfected with p125.CercA and the clones expressing neomycin resistance were isolated. Six clones were isolated: Cecropin A1.4, Cecropin A1.7, Cecropin A1.8, Cecropin A10.3, Cecropin A10.4, and Cecropin A10.8.
Similarly Ej cells were transfected with pBAGpMel and pBagppMel and the clones expressing neomycin resistance were isolated. Three clones containing the premelittin gene were isolated: Pre Melittin 1, Pre Melittin 4, and Pre Melittin 6. Two clones containing prepromelittin were isolated: Pre Pro Melittin 1, and Pre Pro Melittin 5.
The human bladder carcinoma derived cell line, EJ, gives tumours upon injection into immuno compromised nude mice which grow progressively larger (FIGS. 9A–9G). The stable clones of Ej cells carrying the melittin or cecropin expression constructs obtained as described above were tested for their tumorigenicity in nude ice.

In the case of `CC[C@H](C)[C@H](NC(=O)CN)C(=O)NCC(=O)N[C@@H](C)C(=O)N[C@H](C(=O)N[C@@H](CC(C)C)C(=O)N[C@@H](CCCCN)C(=O)N[C@H](C(=O)N[C@@H](CC(C)C)C(=O)N[C@H](C(=O)N[C@H](C(=O)NCC(=O)N[C@@H](CC(C)C)C(=O)N1CCC[C@H]1C(=O)N[C@@H](C)C(=O)N[C@@H](CC(C)C)C(=O)N[C@H](C(=O)N[C@@H](CO)C(=O)N[C@@H](Cc1c[nH]c2ccccc12)C(=O)N[C@H](C(=O)N[C@@H](CCCCN)C(=O)N[C@@H](CCCNC(=N)N)C(=O)N[C@@H](CCCCN)C(=O)N[C@@H](CCCNC(=N)N)C(=O)N[C@@H](CCC(N)=O)C(=O)N[C@@H](CCC(N)=O)C(N)=O)[C@@H](C)CC)[C@@H](C)CC)[C@@H](C)O)[C@@H](C)O)C(C)C)C(C)C` [melittin], the anti-HIV activity result in data set [1] is on record as “anti-HIV activity”. Further, the anti-cancer activity result in data set [2] was “selective anti-cancer”.
On to Cecropin A, for which the antibacterial activity result in data set [3] is “specific antibacterial activity”. Besides, the “ill effects for mammalian cells” value in data set [4] is reported as “without any apparent ill effects”.
Turning to Cecropin B, the antibacterial activity result in data set [3] was “specific antibacterial activity”. Also, the “anticancer activity against tumour cell lines” value in data set [5] was “anticancer activity”. Also, the “ill effects for mammalian cells” value in data set [4] was “without any apparent ill effects”.
Consider cecropin, for which the “effect on expression from MMTV LTR luciferase reporter” value in data set [6] was “downregulatory effect”. Besides, in data set [7], the “luciferase expression from HIV-luc” value is “little luciferase expression”. Moreover, the “rate of tumour growth in mice” value in data set [8] was “reduced rate of tumour growth”.
